Test results reported in patent publication US9918983B2, “Suicidal LSD1 inhibitors targeting SOX2-expressing cancer cells” (THE BOARD OF REGENTS OF THE NEVADA SYSTEM OF HIGHER …, priority 2013, dated 2018).
Blank lines part the entries; values can stand above or below the molecule they belong to.

How the values were obtained:
acetylated H4K16 = test: H4K16 acetylation in HeLa cells (Western blotting); assay type: cell-based, human; conditions: VPA 1 μM or MS-275 2 μM 24 h, TSA 40 nM 16 h
Protocol: Referring to FIG. 31B, the acetylation of H4K16 is sensitive to pan-HDAC inhibitors in HeLa cells. F9 and HeLa cells were treated with the HDAC inhibitor VPA (1 μM) or MS-275 (2 μM) for 24 h or TSA (40 nM) for 16 h. Methylated and acetylated histones H3 and H4 were blotted by specific antibodies, as indicated, and quantified by the use of Gel-Pro Analyzer (version 4.0) software.

LSD1 = target: T1, LSD1 (Homo sapiens, UniProt O60341); test: LSD1 activity (LSD1 IC50, Table 7, FIG. 2); assay type: cell-based
T1 construct: LSD1 activity determined in a cell-based assay as described herein; endogenous in cells
Protocol: For a typical deacetylation assay, 1 μg rHDAC1 or 1 μg immunoprecipitated endogenous HDAC1-protein A complexes (from two 10-cm dishes) was incubated with 0.4 μg H4K16ac peptide in the presence or absence of 50 μM CBB1007 or 2 μM MS-275 at 30° C. for 1 h. The percentages of deacetylated products were analyzed by mass spectrometry, and the data were analyzed by GraphPad Prism (version 5) software. The reaction products were analyzed by mass spectrometry to separate the peptide substrate (H4K16ac) and the product (H4K16), as previously described (Wang, J., et al. (2011) Cancer Research 71, 7238-7249). For a typical demethylation assay, 0.4 μg H3K4me2 substrate peptide was incubated individually with 1 μg recombinant LSD1 (rLSD1) or 1 μg immunoprecipitated LSD1-protein A complex in the presence or absence of 50 μM CBB1007 or 2 μM MS-275 at 30° C. for 1 h. The reaction products were analyzed by mass spectrometry to separate the products (H3K4me1 and H3K4) from the substrate (H3K4me2), as previously described (Wang, J., et al. (2011) Cancer Research 71, 7238-7249).
Table 7 below lists specific compounds and LSD1 activity determined in a cell-based assay as described herein (see also FIGS. 2A and 2B).

LSD1-protein A complex = target: T2, LSD1-protein A complex (Mus musculus, UniProt Q6ZQ88); test: In vitro demethylation assay, immunoaffinity-purified LSD1-protein A complex from F9 cells; assay type: biochemical
T2 construct: recombinant and endogenous LSD1 complexes isolated from F9 cells; endogenous in cells; host or cells: F9 mouse teratocarcinoma cells, anti-LSD1 immunoprecipitate on protein A-Sepharose

HDAC1-protein A complex = target: T3, HDAC1-protein A complex (Mus musculus, UniProt O09106); test: In vitro deacetylation assay, immunoaffinity-purified HDAC1-protein A complex from F9 cells; assay type: biochemical
T3 construct: 1 μg immunoprecipitated endogenous HDAC1-protein A complexes; endogenous in cells; host or cells: F9 mouse teratocarcinoma cells, anti-HDAC1 immunoprecipitate on protein A-Sepharose

[1] = target: T4, recombinant HDAC1 (GST-HDAC1) (Homo sapiens, UniProt Q13547); test: In vitro deacetylation assay, recombinant HDAC1, H4K16ac peptide; assay type: biochemical; conditions: 50 μM CBB1007 or 2 μM MS-275
T4 construct: Human LSD1 and HDAC1 full-length cDNAs were obtained from Open Biosystems; GST (N, cleaved yes); made in house; host or cells: Escherichia coli BL21
From the text: Human LSD1 and HDAC1 full-length cDNAs were obtained from Open Biosystems. […] These cDNAs were fully sequenced and cloned into the pGEX-KG or pET28a vector and expressed as the glutathione S-transferase (GST)- or His-tagged fusion proteins in the Escherichia coli BL21 strain and affinity purified with glutathione or Ni-Sepharose (GE Healthcare, United Kingdom) resin. […] The GST tag and uncut GST-HDAC1/GST-LSD1 proteins were depleted by glutathione-Sepharose. For the reconstitution reaction, recombinant GST-CoREST, His-LSD1, and recombinant HDAC1 (rHDAC1) (GST was removed by the use of PreScission protease) (10 μg) were assembled into the LSD1-CoREST-HDAC1 complex and then pulled down by GSTSepharose resins. Protein A-Sepharose was used as a negative-control resin.

[2] = target: T5, recombinant LSD1 (GST-LSD1) (Homo sapiens, UniProt O60341); test: In vitro demethylation assay, recombinant LSD1, H3K4me2 peptide; assay type: biochemical; conditions: H3K4me2 peptide, LSD1 and HDAC1 without CoREST
T5 construct: Human LSD1 and HDAC1 full-length cDNAs were obtained from Open Biosystems; GST (N, cleaved yes); made in house; host or cells: Escherichia coli BL21
From the text: H3K4me2 and H4K16ac were purchased from AnaSpec and Shanghai Science Peptide Biological Technology Co., Ltd., respectively. Human LSD1 and HDAC1 full-length cDNAs were obtained from Open Biosystems. Human CoREST cDNA was amplified by reverse transcription-PCR (RT-PCR) using mRNA isolated from HeLa cells. These cDNAs were fully sequenced and cloned into the pGEX-KG or pET28a vector and expressed as the glutathione S-transferase (GST)- or His-tagged fusion proteins in the Escherichia coli BL21 strain and affinity purified with glutathione or Ni-Sepharose (GE Healthcare, United Kingdom) resin. […]
For a typical deacetylation assay, 1 μg rHDAC1 or 1 μg immunoprecipitated endogenous HDAC1-protein A complexes (from two 10-cm dishes) was incubated with 0.4 μg H4K16ac peptide in the presence or absence of 50 μM CBB1007 or 2 μM MS-275 at 30° C. for 1 h. The percentages of deacetylated products were analyzed by mass spectrometry, and the data were analyzed by GraphPad Prism (version 5) software. The reaction products were analyzed by mass spectrometry to separate the peptide substrate (H4K16ac) and the product (H4K16), as previously described (Wang, J., et al. (2011) Cancer Research 71, 7238-7249). […]

[3] = target: T6, LSD1-CoREST-HDAC1 complex (Homo sapiens, UniProt O60341+Q13547); test: Reconstituted LSD1-CoREST-HDAC1 complex on oligonucleosomes; assay type: biochemical; conditions: 50 μM CBB1007 or 2 μM MS-275
T6 construct: Human LSD1 and HDAC1 full-length cDNAs were obtained from Open Biosystems; GST (N, cleaved yes); made in house; host or cells: Escherichia coli BL21
Protocol: For the reconstitution reaction, recombinant GST-CoREST, His-LSD1, and recombinant HDAC1 (rHDAC1) (GST was removed by the use of PreScission protease) (10 μg) were assembled into the LSD1-CoREST-HDAC1 complex and then pulled down by GSTSepharose resins. Protein A-Sepharose was used as a negative-control resin.
Briefly, cells (1×10^6) were washed twice with ice-cold hypotonic buffer (20 mM potassium-HEPES, pH 7.8, 5 mM potassium acetate, 0.5 mM MgCl2, 0.5 mM DTT), swelled, and disrupted with 25 strokes in a Dounce homogenizer using a tightfitting pestle. Nuclei were pelleted at 4,000 rpm for 5 min and resuspended in buffer A (20 mM HEPES, pH 7.9, 1.5 mM magnesium acetate, 50 mM potassium acetate, 10% glycerol, 0.5 mM DTT, 150 mM NaCl, protease and phosphatase inhibitors). […] The chromatin pellet was resuspended in 0.5 mL buffer B (0.32 M sucrose, 50 mM Tris-HCl, pH 7.5, 4 mM MgCl2, 1 mM CaCl2, 0.1 mM phenylmethylsulfonyl fluoride) and incubated with 30 units of micrococcal nuclease for 10 min at 37° C. The digested samples were centrifuged at 8,000×g for 10 min, and the supernatant, which contained oligonucleosomes, was recovered.
The reaction products (demethylated or deacetylated histones) were analyzed by Western blotting.

[4] = test system: histone H3 and H4 methylation and acetylation; test: Histone modifications in F9 cells (Western blotting); assay type: cell-based, mouse
Protocol: To quantify and compare the protein band densities in the Western blots shown in the figures, a titration by serial dilution of the siRNA protein samples for mES cell lysates was used as a reference. The concentration of titration samples was measured by use of a NanoDrop 2000 apparatus, and the protein concentration of all titration samples was adjusted to 1 μg/μL. The protein samples were loaded onto an SDS-polyacrylamide gel at levels ranging from 1 μg to 13 μg at 2-μg intervals and immune blotted with each antibody, including anti-LSD1, anti-HDAC1, and anti-histone H3 antibodies, with three independent loadings. The Western blots were developed with exposure times ranging from 30 s to 1 min. The exposure density of each band was scanned by Adobe Photoshop Elements (version 4.0) software using a CanonScan 8600F scanner (Canon, Calif.) and was subsequently quantified by use of the area density tool of Gel-Pro Analyzer (version 4.0) software (Media Cybernetics, Inc.) and plotted. The regression analysis of each signal was performed by use of the Microsoft Excel program's Analysis Tool Pak regression option. […] The amount of the protein band in the Western blot shown in the figures was quantified by scanning, as described for the reference titration. […] The quantity of protein band densities between two protein samples was externally corrected by use of the reference plots. […] The statistical differences between the experimental and control groups were analyzed by one-way analysis of variance (ANOVA). […]
Referring to FIG. 28D, time course analyses of the effects of 50 μM LSD1 inhibitor CBB1007 on histone modifications in F9 cells are shown, but with a shorter time course than above. The mean density of each band was quantified by the use of Gel-Pro Analyzer (version 4.0) software, and error bars represent SEMs for duplicate samples. […] The statistical differences were analyzed by one-way ANOVA. *, P_0.05; **, P_0.01. […]

T47D cells = test: Cell cycle analysis by FACS in T47D cells; assay type: cell-based, human; conditions: 50 nM siRNA
Protocol: (§1) The fluorescence-activated cell sorting (FACS) and 3-(4,5-dimethyl-2-thiazolyl)-2,5-diphenyl-2H-tetrazolium bromide (MTT) assays were conducted as described previously (Lan, R., et al. (2012) Lab. Invest. 92, 1503-1514). To synchronize PA-1 and F9 cells at the G1/S phase transition, cells were treated with 2.5 mM thymidine for 12 h, released into fresh medium for 6 h, and blocked again with 2.5 mM thymidine for an additional 12 h. The cell cycle arrest was analyzed by FACS. For differentiation, F9 and PA-1 cells were seeded in 6-well plates at a density of 1×10^4 cells per well and supplemented with 5 μM RA for 3 days. Cells were then recultured in fresh medium without RA for another 2 days, and the cell cycle was analyzed on a BD FACSCalibur cell sorter using the CellQuest program (Becton, Dickinson, Mountain View, Calif.). The percentages of cells in G1, S, and G2/M phases were determined by the use of ModFit LT software.
(§2) Referring to FIG. 9C, Sox2-expressing A549, IGROV1, T47D and Sox2-negative H1437 cells were transfected with 50 nM luciferase (Luc) or LSD1 specific siRNAs for 60 hours and the cell cycle was analyzed by flow-cytometry (FACS).
(§3) Referring to FIG. 17A, Sox2-expressing A549, IGROV1, and T47D and Sox2-negative H1437 cells were transfected with luciferase and Sox2 specific siRNAs for 48 hours. The cell cycles of these cells after Sox2 ablation were analyzed by flow-cytometry.

H1437 cells = test: Cell cycle analysis by FACS in H1437 cells; assay type: cell-based, human; conditions: 50 nM siRNA
Protocol: as §1, §2, §3

IGROV1 cells = test: Cell cycle analysis by FACS in IGROV1 cells; assay type: cell-based, human; conditions: 50 nM siRNA
Protocol: as §1, §2, §3

A549 cells = test: Cell cycle analysis by FACS in A549 cells; assay type: cell-based, human; conditions: 50 nM siRNA
Protocol: as §1, §2, §3

T4 sequence (Q13547 whole entry): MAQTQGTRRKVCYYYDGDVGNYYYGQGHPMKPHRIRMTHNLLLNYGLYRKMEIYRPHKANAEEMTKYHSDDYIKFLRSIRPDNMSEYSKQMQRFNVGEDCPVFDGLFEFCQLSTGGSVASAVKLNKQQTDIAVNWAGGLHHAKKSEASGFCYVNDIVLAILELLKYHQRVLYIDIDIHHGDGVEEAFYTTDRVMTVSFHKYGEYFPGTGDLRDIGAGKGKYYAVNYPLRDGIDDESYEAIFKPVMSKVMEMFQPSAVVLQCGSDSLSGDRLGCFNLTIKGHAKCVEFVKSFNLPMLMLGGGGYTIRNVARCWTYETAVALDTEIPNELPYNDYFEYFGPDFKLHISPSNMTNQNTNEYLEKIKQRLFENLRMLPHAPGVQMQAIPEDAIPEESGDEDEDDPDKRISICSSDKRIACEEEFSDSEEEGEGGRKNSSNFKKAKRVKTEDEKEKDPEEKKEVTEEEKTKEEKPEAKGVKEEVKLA

Molecule: CCCC(CCC)C(=O)O [VPA, valproic acid]
acetylated H4K16 level (acetylated H4K16): induced the accumulation of acetylated H4K16

Molecule: N[C@@H]1C[C@H]1c1ccc(OCc2ccccc2)cc1 [Compound 3]
IC50 (LSD1): 39.4 µM

Molecule: Nc1ccccc1NC(=O)c1ccc(CNC(=O)OCc2cccnc2)cc1 [MS-275]
acetylated H4K16 level (acetylated H4K16): induced the accumulation of acetylated H4K16
demethylation activity of immunoaffinity-purified LSD1 (LSD1-protein A) (LSD1-protein A complex): blocked the demethylation activity
deacetylase activity of immunoaffinity-purified HDAC1 (HDAC1-protein A) (HDAC1-protein A complex): sensitive
deacetylase activity of recombinant HDAC1 [1]: inhibited
LSD1 activity in the absence of CoREST [2]: not sensitive
HDAC1 deacetylase activity in the reconstituted complex [3]: blocking the HDAC1 activity
LSD1 demethylase activity in the reconstituted complex [3]: partially inhibit the LSD1 demethylase activity
H4K16 acetylation of oligonucleosomes from treated cells [4]: hyperacetylated on H4K16

IC50 (LSD1): 31.4 µM
Molecule: CN1CCN(CCN[C@@H]2C[C@H]2c2ccc(OCc3ccccc3)cc2)CC1 [Compound 2]

Molecule: CC(/C=C/C(=O)NO)=C\[C@@H](C)C(=O)c1ccc(N(C)C)cc1 [TSA, trichostatin A]
acetylated H4K16 level (acetylated H4K16): induced the accumulation of acetylated H4K16

Molecule: Sox2 siRNA: siRNA, human Sox2: CGCUCAUGAAGAAGGAUAA (SEQ ID NO:2) (listed as RNA, chemistry not given here)
cell cycle population G0/G1 (T47D cells): 74.65%
cell cycle population G2/M (T47D cells): 10.86%
cell cycle population S (T47D cells): 14.48%
cell cycle population G0/G1 (H1437 cells): 39.39%
cell cycle population G2/M (H1437 cells): 35.51%
cell cycle population S (H1437 cells): 25.10%
cell cycle population G0/G1 (IGROV1 cells): 74.62%
cell cycle population G2/M (IGROV1 cells): 12.52%
cell cycle population S (IGROV1 cells): 12.87%
cell cycle population G0/G1 (A549 cells): 76.40%
cell cycle population G2/M (A549 cells): 0.19%
cell cycle population S (A549 cells): 23.41%

Molecule: LSD1 siRNA: siRNA, human LSD1: GGAAGAAGAUAGUGAAAAC (SEQ ID NO:1) (listed as RNA, chemistry not given here)
cell cycle population G0/G1 (T47D cells): 76.34%
cell cycle population G2/M (T47D cells): 12.17%
cell cycle population S (T47D cells): 11.49%
cell cycle population G0/G1 (H1437 cells): 37.28%
cell cycle population G2/M (H1437 cells): 37.75%
cell cycle population S (H1437 cells): 24.97%
cell cycle population G0/G1 (IGROV1 cells): 78.07%
cell cycle population G2/M (IGROV1 cells): 8.56%
cell cycle population S (IGROV1 cells): 13.37%
cell cycle population G0/G1 (A549 cells): 74.81%
cell cycle population G2/M (A549 cells): 0.65%
cell cycle population S (A549 cells): 24.55%
